Measurements from patent US20240166649A1, “DIHYDROPYRIMIDINE COMPOUND, PREPARATION METHOD THEREFOR AND APPLICATION THEREOF” (Shanghai Visonpharma Co., Ltd., priority 2021, published 2024).

tested on: HBV (hepatitis B virus) in HepG2.2.15 cells; experiment: Cell-based anti-viral activity assay (HBV DNA in supernatant by quantitative PCR); details: 120 h, anti-HBV activity, HepG2.2.15 cells, 5 days, read-out: EC50 (HepG2.2.15)
Experimental: Cell-Based Anti-Viral Activity Assay
The Invention determined the anti-HBV (hepatitis B virus) activity of compounds in HepG2.2.15 cells (Table 1).
HepG2.2.15 is a cell line stably transfected with the HBV genome. HepG2.2.15 cells were cultured in DMEM (1X) with 10% fetal bovine serum (Corning), 100 U penicillin (Gibico), 100 μg/mL streptomycin (Gibico), 250 μg/mL geneticin (Gibco) and GlutaMAXTM-I medium (Invitrogen).
HepG2.2.15 cells were seeded into 96-well plates (4×10^4 cells in 100 μL of medium per well) and incubated overnight at 37° C. The test compounds were weighed and prepared as 10 mM stock solution with DMSO. The stock solutions of the compounds were diluted by a gradient of 3.16 times with DMSO, and then diluted by a gradient of 3.16 times with medium for 50 times. Finally, the diluted compound solutions were added to the cell plate with a total volume of 200 μL and the final DMSO concentration was 1%. The 96-well culture plates loaded with drugs were transferred to an incubator at 37° C. for 5 days. […] nucleic acid releasing agent was added to 96-well PCR reaction plate, and 2 μL of cell supernatant or HBV quantitative standards were added to the corresponding Wells. Centrifuged the plates to fully mix, and incubated at room temperature for 10 min to fully release nucleic acid. Quantified HBV DNA content by fluorescent quantitative PCR (CFX Connect Real-Time System) using Sanxiang Bio hepatitis B virus fluorescent quantitative diagnostic kit.
The standard curve was established by taking the logarithm of the copy number (IU/ml) of the HBV standard sample (log 10) as the abscordinate and the corresponding CT value as the ordinate. The copy number of the sample was calculated according to the corresponding CT of the positive sample and the standard curve, and the percentage of inhibition rate was calculated as follows: • % Inhibition=100-100*(sample HBV copy number−high concentration reference compound column HBV copy number)/DMSO column HBV copy number−high concentration reference compound column HBV copy number).

Point of comparison: `CCOC(=O)C1=C(CN2CCN3C(=O)N(C45CC(C(C)C(=O)O)(C4)C5)C[C@@H]3C2)NC(c2nccs2)=N[C@H]1c1cccc(F)c1C` (stereo partly drawn) [Compound 30, 2-(3-((S)-7-(((S)-5-(Ethoxycarbonyl)-6-(3-Fluoro-2-Methylphenyl)-2-(Thiazol-2-Yl)-3,6-Dihydropyrimidin-4-Yl)Methyl)-3-Oxohexahydroimidazo[1,5-a]Pyrazin-2(3H)-Yl)Bicyclo[1.1.1]Pentan-1-Yl)Propanoic Acid], EC50 11 nM. Against it:
- CCOC(=O)C1=C(CN2CCN3C(=O)N(C45CC(NC(C)=O)(C4)C5)C[C@@H]3C2)NC(c2nccs2)=N[C@H]1c1cccc(F)c1C [Compound 10, Ethyl (S)-6-(((S)-2-(3-Acetamidobicyclo[1.1.1]Pentan-1-Yl)-3-Oxohexahydroimidazo[1,5-a]Pyrazin-7(1H)-Yl)Methyl)-4-(3-Fluoro-2-Methylphenyl)-2-(Thiazol-2-Yl)-1,4-Dihydropyrimidine-5-Carboxylate] — within 1.5-fold, 8 nM
- CCOC(=O)C1=C(CN2CCN3C(=O)N(C45CC(CNS(N)(=O)=O)(C4)C5)C[C@@H]3C2)NC(c2nccs2)=N[C@H]1c1cccc(F)c1C [Compound 24, Ethyl (S)-4-(3-Fluoro-2-Methylphenyl)-6-(((S)-3-Oxo-2-(3-((Sulfamoylamino)Methyl)Bicyclo[1.1.1]Pentan-1-Yl)Hexahydroimidazo[1,5-a]Pyrazin-7(1H)-Yl)Methyl)-2-(Thiazol-2-Yl)-1,4-Dihydropyrimidine-5-Carboxylate] — within 1.5-fold, 9 nM
- CCOC(=O)C1=C(CN2CCN3C(=O)N(C45CC(CC(=O)O)(C4)C5)C[C@@H]3[C@H]2COC)NC(c2nccs2)=N[C@H]1c1cccc(F)c1C [Compound 43, 2-(3-((8S,8aR)-7-(((S)-5-(Ethoxycarbonyl)-6-(3-Fluoro-2-Methylphenyl)-2-(Thiazol-2-Yl)-3,6-Dihydropyrimidin-4-Yl)Methyl)-8-(Methoxymethyl)-3-Oxohexahydroimidazo[1,5-a]Pyrazin-2(3H)-Yl)Bicyclo[1.1.1]Pentan-1-Yl)Acetic Acid] — 18-fold higher, 197 nM
- CCOC(=O)C1=C(CN2CCN3C(=O)N(C45CC(COC)(C4)C5)C[C@@H]3C2)NC(c2nccs2)=N[C@H]1c1cccc(F)c1C [Compound 3, Ethyl (S)-4-(3-Fluoro-2-Methylphenyl)-6-(((S)-2-(3-(Methoxymethyl)Bicyclo[1.1.1]Pentan-1-Yl)-3-Oxohexahydroimidazo[1,5-a]Pyrazin-7(1H)-Yl)Methyl)-2-(Thiazol-2-Yl)-1,4-Dihydropyrimidine-5-Carboxylate] — 2.8-fold lower, 4 nM
- CCOC(=O)C1=C(CN2CCN3C(=O)N(C45CC(N(C)C(C)=O)(C4)C5)C[C@@H]3C2)NC(c2nccs2)=N[C@H]1c1cccc(F)c1C [Compound 12, Ethyl (S)-4-(3-Fluoro-2-Methylphenyl)-6-(((S)-2-(3-(N-Methylacetamido)Bicyclo[1.1.1]Pentan-1-Yl)-3-Oxohexahydroimidazo[1,5-a]Pyrazin-7(1H)-Yl)Methyl)-2-(Thiazol-2-Yl)-1,4-Dihydropyrimidine-5-Carboxylate] — 3.7-fold lower, 3 nM
- CCOC(=O)C1=C(CN2CCN3C(=O)N(C45CC(N(C)S(C)(=O)=O)(C4)C5)C[C@@H]3C2)NC(c2nccs2)=N[C@H]1c1cccc(F)c1C [Compound 11, Ethyl (S)-4-(3-Fluoro-2-Methylphenyl)-6-(((S)-2-(3-(N-Methylmethylsulfonamido)Bicyclo[1.1.1]Pentan-1-Yl)-3-Oxohexahydroimidazo[1,5-a]Pyrazin-7(1H)-Yl)Methyl)-2-(Thiazol-2-Yl)-1,4-Dihydropyrimidine-5-Carboxylate] — 2.8-fold lower, 4 nM
- CCOC(=O)C1=C(CN2CCN3C(=O)N(C45CC(CNS(=O)(=O)C6CC6)(C4)C5)C[C@@H]3C2)NC(c2nccs2)=N[C@H]1c1cccc(F)c1C [Compound 23] — 2.8-fold lower, 4 nM
- CCOC(=O)C1=C(CN2CCN3C(=O)N(C45CC(CC(C)(C)C(=O)O)(C4)C5)C[C@@H]3C2)NC(c2nccs2)=N[C@H]1c1cccc(F)c1C [Compound 4] — within 1.5-fold, 8 nM
- CCOC(=O)C1=C(CN2CCN3C(=O)N(C45CC(NS(C)(=O)=O)(C4)C5)C[C@@H]3C2)NC(c2nccs2)=N[C@H]1c1cccc(F)c1C [Compound 9, Ethyl (S)-4-(3-Fluoro-2-Methylphenyl)-6-(((S)-2-(3-(Methylsulfonamido)Bicyclo[1.1.1]Pentan-1-Yl)-3-Oxohexahydroimidazo[1,5-a]Pyrazin-7(1H)-Yl)Methyl)-2-(Thiazol-2-Yl)-1,4-Dihydropyrimidine-5-Carboxylate] — 2.8-fold lower, 4 nM
- CCOC(=O)C1=C(CN2CCN3C(=O)N(C45CC(CC(=O)O)(C4)C5)C[C@@H]3C2)NC(c2nccs2)=N[C@H]1c1ccc(F)c(F)c1 [Compound 36] — 4.4-fold higher, 48 nM
- CCOC(=O)C1=C(CN2CCN3C(=O)N(C45CC(CNS(C)(=O)=O)(C4)C5)C[C@@H]3C2)NC(c2nccs2)=N[C@H]1c1cccc(F)c1C [Compound 14, Ethyl (S)-4-(3-Fluoro-2-Methylphenyl)-6-(((S)-2-(3-(Methylsulfonamidomethyl)Bicyclo[1.1.1]Pentan-1-Yl)-3-Oxohexahydroimidazo[1,5-a]Pyrazin-7(1H)-Yl)Methyl)-2-(Thiazol-2-Yl)-1,4-Dihydropyrimidine-5-Carboxylate] — 2.8-fold lower, 4 nM
- CCOC(=O)C1=C(CN2CCN3C(=O)N(C45CC(N6CCCS6(=O)=O)(C4)C5)C[C@@H]3C2)NC(c2nccs2)=N[C@H]1c1cccc(F)c1C [Compound 19, Ethyl (S)-6-(((S)-2-(3-(1,1-Dioxidoisothiazolidin-2-Yl)Bicyclo[1.1.1]Pentan-1-Yl)-3-Oxohexahydroimidazo[1,5-a]Pyrazin-7(1H)-Yl)Methyl)-4-(3-Fluoro-2-Methylphenyl)-2-(Thiazol-2-Yl)-1,4-Dihydropyrimidine-5-Carboxylate] — 3.7-fold lower, 3 nM
- CCOC(=O)C1=C(CN2CCN3C(=O)N(C45CC(C(N)=O)(C4)C5)C[C@@H]3C2)NC(c2nccs2)=N[C@H]1c1cccc(F)c1C [Compound 7, ethyl (S)-6-(((S)-2-(3-Carbamoylbicyclo[1.1.1]Pentan-1-Yl)-3-Oxohexahydroimidazo[1,5-a]Pyrazin-7(1H)-Yl)Methyl)-4-(3-Fluoro-2-Methylphenyl)-2-(Thiazol-2-Yl)-1,4-Dihydropyrimidine-5-Carboxylate] — 1.6-fold lower, 7 nM
- CCOC(=O)C1=C(CN2CCN3C(=O)N(C45CC(CS(C)(=O)=O)(C4)C5)C[C@@H]3C2)NC(c2nccs2)=N[C@H]1c1cccc(F)c1C [Compound 8, Ethyl (S)-4-(3-Fluoro-2-Methylphenyl)-6-(((S)-2-(3-((Methylsulfonyl)Methyl)Bicyclo[1.1.1]Pentan-1-Yl)-3-Oxohexahydroimidazo[1,5-a]Pyrazin-7(1H)-Yl)Methyl)-2-(Thiazol-2-Yl)-1,4-Dihydropyrimidine-5-Carboxylate] — 2.8-fold lower, 4 nM
- CCOC(=O)C1=C(CN2CCN3C(=O)N(C45CC(CO)(C4)C5)C[C@@H]3C2C(=O)OCC)NC(c2nccs2)=N[C@H]1c1cccc(F)c1C (stereo partly drawn) [Compound 31, Ethyl (8aR)-7-(((S)-5-(Ethoxycarbonyl)-6-(3-Fluoro-2-Methylphenyl)-2-(Thiazol-2-Yl)-3,6-Dihydropyrimidin-4-Yl)Methyl)-2-(3-(Hydroxymethyl)Bicyclo[1.1.1]Pentan-1-Yl)-3-Oxooctahydroimidazo[1,5-a]Pyrazine-8-Carboxylate] — 2.3-fold higher, 25 nM
- CCOC(=O)C1=C(CN2CCN3C(=O)N(C45CC(C(=O)NC)(C4)C5)C[C@@H]3C2)NC(c2nccs2)=N[C@H]1c1cccc(F)c1C [Compound 26, Ethyl (S)-4-(3-Fluoro-2-Methylphenyl)-6-(((S)-2-(3-(Methylcarbamoyl)Bicyclo[1.1.1]Pentan-1-Yl)-3-Oxohexahydroimidazo[1,5-a]Pyrazin-7(1H)-Yl)Methyl)-2-(Thiazol-2-Yl)-1,4-Dihydropyrimidine-5-Carboxylate] — 2.2-fold lower, 5 nM
- CCOC(=O)C1=C(CN2CCN3C(=O)N(C45CC(C(OC)C(=O)O)(C4)C5)C[C@@H]3C2)NC(c2nccs2)=N[C@H]1c1cccc(F)c1C (stereo partly drawn) [Compound 51, 2-(3-((S)-7-(((S)-5-(Ethoxycarbonyl)-6-(3-Fluoro-2-Methylphenyl)-2-(Thiazol-2-Yl)-3,6-Dihydropyrimidin-4-Yl)Methyl)-3-Oxohexahydroimidazo[1,5-a]Pyrazin-2(3H)-Yl)Bicyclo[1.1.1]Pentan-1-Yl)-2-Methoxyacetic Acid] — 13-fold higher, 139 nM

same assay, conditions: HepG2.2.15, 120 h, read-out: EC50 (HepG2.2.15, nM)

With `CCOC(=O)C1=C(CN2CCN3C(=O)N(C45CC(CP(=O)(OCC)OCC)(C4)C5)C[C@@H]3C2)NC(c2nccs2)=N[C@H]1c1cccc(F)c1C` [Compound 16, Ethyl (S)-6-(((S)-2-(3-((Diethoxyphosphoryl)Methyl)Bicyclo[1.1.1]Pentan-1-Yl)-3-Oxohexahydroimidazo[1,5-a]Pyrazin-7(1H)-Yl)Methyl)-4-(3-Fluoro-2-Methylphenyl)-2-(Thiazol-2-Yl)-1,4-Dihydropyrimidine-5-Carboxylate] the EC50 was 9 nM.
